Molecules are shown by their SMILES.

Assay [1] relates to retinal lesion (wet-AMD) induced by laser photocoagulation. The assay can be described thus: Lesion volume in laser-induced CNV wet-AMD mouse model (FITC-dextran, Z-stack 3D imaging). The assay is classed as in vivo. Conditions: for efficacy on lesion compared with positive control anti-VEGF agent (FIG. 1) / lesion formation / lesion volume (FIG. 1): oral, from 6 days before and for 7 days after inducing wet-AMD; for efficacy on lesion compared with positive control anti-VEGF agent (FIG. 1): Eylea injected into the eye as positive control; for lesion formation / lesion volume (FIG. 1): male C57BL/6 mice. As to the method:
Male C57BL/6 mice were anesthetized with zoletil and rompun, and a retinal lesion (wet-AMD) was induced by performing three laser photocoagulations at the 2 o'clock, 6 o'clock, and 10 o'clock positions at on the retina of the mouse eye under a slit-lamp microscope. Each of Compound 1-2 and Compound 1-18 was administered orally starting from 6 days before inducing wet-AMD, and was administered orally for 7 days after inducing the disease. Eylea (Bayer, Germany), used as a positive control, was administered by direct injection into the eye immediately after induction of the disease model.
After weighing each mouse, FITC-dextran (SIGMA, #46944) diluted in saline at a concentration of 5 mg/kg was injected into the tail veins of the mice to which each of Compound 1-2 and Compound 1-18 has been administered for 7 days after inducing the wet-AMD model. 3D images of the lesions were obtained using the Z-stack imaging technique, and the volumes of the lesions on the images were quantitatively measured.
Changes after administering Compound 1-2 for 7 days after induction of the disease without administration before induction of the disease to the wet-AMD mouse model induced in the same manner as in Experimental Example 1 were analyzed. In the same manner as Experimental Example 1, the image of the lesion was obtained and the volume of the lesion was quantified.
Changes after co-administering Compound 1-2 and the anti-VEGF agent (Eylea) for 7 days after induction of the disease without administration before induction of the disease to the wet-AMD mouse model induced in the same manner as in Experimental Example 1 were analyzed. In the same manner as Experimental Example 1, the image of the lesion was obtained and the volume of the lesion was quantified.
Changes after administering Compound 1-2 at concentrations of 25, 50 and 100 mg/kg for 7 days after induction of the disease without administration of Compound 1-2 before induction of the disease to the wet-AMD mouse model induced in the same manner as in Experimental Example 1 were analyzed. In the same manner as Experimental Example 1, the image of the lesion was obtained and the volume of the lesion was quantified.

In the next assay the test system is RPE cytoskeleton. Kind of assay: RPE cell structure (ZO-1 staining) in Alu-RNA animal model (dry-AMD). Type of assay: in vivo, mouse. As to conditions: oral, from 6 days before and for 7 days after induction of dry-AMD. The procedure: (§1) Male C57BL/6 mice were anesthetized, and a lesion was induced by making a hole in the corneal limbus of the mouse eye and injecting 1.2 μg of Alu-RNA into the subretinal space by a Hamilton syringe. Each of Compound 1-2 and Compound 1-18 was administered orally starting from 6 days before induction of the dry-AMD model, and was administered orally for 7 days after induction of the disease. To evaluate the dry-AMD preventive and therapeutic effects of each of Compound 1-2 and Compound 1-18, the morphology of the lesion was evaluated by fundus photography using TOPCON #TRC-50DX.
RPE cells were isolated from the same model as in Experimental Example 9 and stained for ZO-1, and changes in the structure of the RPE cells were examined under a fluorescence microscope (Olympus SZ51, Tokyo, Japan). Specifically, immediately after enucleation of the mouse eye, the RPE cytoskeleton was stained for zonula occludens-1 (ZO-1) and imaged with a fluorescence microscope through the Z-stack imaging technique, and changes in the RPE cytoskeleton were imaged.

The test system of assay [2] is mitochondrial reactive oxygen species in RPE cells. Kind of assay: Mitochondrial reactive oxygen species (MitoSOX) in RPE cells from Alu-RNA animal model (dry-AMD). The assay is classed as in vivo, mouse. As to conditions: oral, from 6 days before and for 7 days after induction of dry-AMD.
Text: (§2) RPE cells were isolated from the same model as in Experimental […] changes in mitochondrial reactive oxygen species in the RPE cells were examined through fluorescence microscopy. Specifically, immediately after enucleation of the mouse eye, mitochondria and nuclei were stained using the MitoSOX™ (Invitrogen, #M36008) kit and imaged with a fluorescence microscope at a fluorescence wavelength of 510/580 nm, and changes in reactive oxygen species in the mitochondria were measured.
as §1
RPE cells were isolated from the same model as in Experimental Example 9 and stained with MitoSOX, and changes in mitochondrial reactive oxygen species in the RPE cells were examined through fluorescence microscopy. Measurement was performed in the same manner as in Experimental Example 2.

Assay [3] has the same test system. Kind of assay: Mitochondrial reactive oxygen species (MitoSOX) in RPE cells from wet-AMD (CNV) animal model. The assay is classed as in vivo, mouse. As to conditions: for mitochondrial reactive oxygen species in RPE cells (FIG. 2) / efficacy on mitochondrial reactive oxygen species compared with positive control anti-VEGF agent (FIG. 2): oral, from 6 days before and for 7 days after inducing wet-AMD; for efficacy on mitochondrial reactive oxygen species compared with positive control anti-VEGF agent (FIG. 2): Eylea as positive control.
Text: as §2
RPE cells were isolated from the same model as in Experimental Example 3 and stained with MitoSOX, and changes in mitochondrial reactive oxygen species in the RPE cells were examined through fluorescence microscopy. Measurement was performed in the same manner as in Experimental Example 2.
RPE cells were isolated from the same model as in Experimental Example 5 and stained with MitoSOX, and changes in mitochondrial reactive oxygen species in the RPE cells were examined through fluorescence microscopy. Measurement was performed in the same manner as in Experimental Example 2.
RPE cells were isolated from the same model as in Experimental Example 7 and stained with MitoSOX, and changes in mitochondrial reactive oxygen species in the RPE cells were examined through fluorescence microscopy. Measurement was performed in the same manner as in Experimental Example 2.

Assay [4] has as its system lesion in the eyeball, Alu-RNA dry-AMD model. Kind of assay: Fundus photography of eyeball lesion in Alu-RNA animal model (dry-AMD). Type of assay: in vivo, mouse. Conditions: oral, from 6 days before and for 7 days after induction of dry-AMD (1.2 μg Alu-RNA subretinal). As to the method:
as §1

Assay [5] relates to inflammation-related mRNA in RPE cells. Kind of assay: Inflammatory factor mRNA (real-time PCR) in RPE cells from Alu-RNA animal model (dry-AMD). The assay is classed as in vivo, mouse. As to conditions: oral, from 6 days before and for 7 days after induction of dry-AMD. The procedure:
as §1
RPE cells were isolated from the same model as in Experimental Example 9, and the relative expression level of inflammation-related mRNA was analyzed using real-time PCR. […] 100 pmol of oligo Dt17 primer was added to 1 μg of total RNA which was then incubated at 74° C. for 10 minutes, and then 30 U of RNAsin (RNase inhibitor), 10 U of AMV-RT (avian myeloblastosis virus-reverse transcriptase), and AMV-RT buffer (Promega, Israel) were added thereto and reacted at 42° C. for 2 hours and at 52° C. for 1 hour, thereby synthesizing cDNA from the RNA extracted from the […]. cDNA was amplified using the SYBR Premix Ex Taq kit (Takara Bio, Inc.) and the StepOnePlus Real-time PCR system (Applied Biosystems), and then mRNA expression was measured.

Setting [6] is: 25, 50 and 100 mg/kg for 7 days after induction of the disease.
Where [7] appears, read: administered for 7 days after induction of the disease, none before induction.

Consider `CCOc1ccc(C2COc3c(ccc4c3CCC(C)(C)O4)C2)c(O)c1` (stereo not shown) [Compound 1-2], for which the “lesion volume depending on concentration (FIG. 7)” value in assay [1] (setting [6]) is “reduced in a manner dependent on the concentration”. In addition, in assay [1] (setting [7]), the “efficacy on lesion compared with positive control anti-VEGF agent (FIG. 3)” value is reported as “efficacy equivalent to that of the positive control anti-VEGF agent” and the “lesion formation / lesion volume (FIG. 3)” value was “suppressed formation of the lesion”. Besides, in assay [1], the “efficacy on lesion compared with positive control anti-VEGF agent (FIG. 1)” value is recorded as “efficacy equivalent to that of the positive control anti-VEGF agent” and the “lesion formation / lesion volume (FIG. 1)” value is “inhibited lesion formation”. In addition, the “RPE cytoskeleton, ZO-1 staining (FIG. 10)” value with RPE cytoskeleton is given as “restored the damaged RPE cytoskeleton”. Besides, in assay [2], the “mitochondrial reactive oxygen species in RPE cells (FIG. 11)” value is reported as “reduced mitochondrial reactive oxygen species”. Moreover, the “efficacy in reducing mitochondrial reactive oxygen species at 100 mg/kg (FIG. 8)” value in assay [3] (100 mg/kg versus 25 and 50 mg/kg, 7 days after induction of the disease) is reported as “highest efficacy”. Besides, in assay [3] (setting [6]), the “mitochondrial reactive oxygen species in RPE cells depending on concentration (FIG. 8)” value is “reduced mitochondrial reactive oxygen species in a concentration-dependent manner”. For the same compound, in assay [3] (setting [7]), the “efficacy on mitochondrial reactive oxygen species compared with positive control anti-VEGF agent (FIG. 4)” value is reported as “efficacy equivalent to that of the positive control anti-VEGF agent” and the “mitochondrial reactive oxygen species in RPE cells (FIG. 4)” value is reported as “reduced mitochondrial reactive oxygen species”. For the same compound, in assay [3], the “mitochondrial reactive oxygen species in RPE cells (FIG. 2)” value is “reduced mitochondrial reactive oxygen species” and the “efficacy on mitochondrial reactive oxygen species compared with positive control anti-VEGF agent (FIG. 2)” value is given as “efficacy equivalent to that of the positive control anti-VEGF agent”. Moreover, the “lesion in the eyeball by fundus photography (FIG. 9)” value in assay [4] is recorded as “reduced the lesion in the eyeball”. Further, the “inflammatory factors in RPE cells, relative mRNA expression (FIG. 12)” value in assay [5] is on record as “effectively reduced”.

As to `CCCOc1ccc([C@@H]2COc3c(ccc4c3CCC(C)(C)O4)C2)c(O)c1` [Compound 1-18], in assay [1], the “efficacy on lesion compared with positive control anti-VEGF agent (FIG. 1)” value is given as “efficacy equivalent to that of the positive control anti-VEGF agent” and the “lesion formation / lesion volume (FIG. 1)” value is “inhibited lesion formation”. Besides, the “RPE cytoskeleton, ZO-1 staining (FIG. 10)” value in the assay on RPE cytoskeleton is “restored the damaged RPE cytoskeleton”. Also, in assay [2], the “mitochondrial reactive oxygen species in RPE cells (FIG. 11)” value is given as “reduced mitochondrial reactive oxygen species”. Also, in assay [3], the “mitochondrial reactive oxygen species in RPE cells (FIG. 2)” value is listed as “reduced mitochondrial reactive oxygen species” and the “efficacy on mitochondrial reactive oxygen species compared with positive control anti-VEGF agent (FIG. 2)” value was “efficacy equivalent to that of the positive control anti-VEGF agent”. The “lesion in the eyeball by fundus photography (FIG. 9)” value in assay [4] is recorded as “reduced the lesion in the eyeball”.

(Values after patent publication US20250367163A1, “PHARMACEUTICAL COMPOSITION FOR PREVENTING OR TREATING DEGENERATIVE EYE DISEASES” (GLACEUM, INC., priority 2021, published 2025).)
